Experimental data as given in publication PMC11093748, “De novo identification of CD4^+ T cell epitopes” (Nature Methods, 2024).

Assays:
Assay type in all cases: cell-based, mouse
[1] = tested on: TCR10A; assay: I-Ag7 SABR-II library screen, enrichment score; conditions: TCR_Mean minus PREDICTED_TCR (from LIB_Mean, SLOPE 0.950997, INTERCEPT 1.20253e-5), PZ47
Source text: (§1) We then asked whether SABR-IIs could be used to present a library of epitopes for CD4^+ T cell antigen discovery. To that end, we constructed a SABR-II library to present epitopes derived from pancreatic islets in I-Ag7 by curating a list of 4,075 published epitopes from the Immune Epitope Database (iedb.org)[50] and a study by Wan et al.[51] (Supplementary Table 1). Of note, this defined library consisted of unmodified epitopes from endogenous proteins, synthetic mimotopes, deamidated epitopes and hybrid insulin peptides (HIPs) that arise from post-translational fusion and are not genetically encoded in vivo[52],[53]. The epitope library was inserted into the I-Ag7 SABR-II backbone through pooled oligonucleotide synthesis, amplification and ligation-free cloning (Extended Data Fig. 3a). The I-Ag7 SABR-II-library was then expressed in NFAT–GFP Jurkat cells. We confirmed that after sequencing, the library accounted for a mean of 708 reads per epitope (Extended Data Fig. 3b). As a proof of concept, we performed co-incubation assays with Jurkat cells expressing the BDC2.5 TCR and sorted the top 1–2% of GFP^+CD69^+ cells at a rate of ~20 min per replicate with three replicates per TCR. We extracted the genomic DNA from sorted cells, amplified the SABR portion of the integrated proviruses and subjected the amplicons to Illumina sequencing (Extended Data Fig. 3c,d). The 1–2% sort gate represents >50-fold enrichment of cognate epitopes with minimal loss of signal (Extended Data Fig. 3e–h). Sequence reads were aligned to the I-Ag7 SABR-II backbone and the corresponding epitopes were scored based on their read counts. For each TCR under investigation, an enrichment score (ES) was determined for all the epitopes in a library. In each experiment, three replicates of a sort with TCR-expressing Jurkat cells were performed and reads were counted post-sequencing. In addition, three replicates of the unsorted library were also sequenced. A linear regression model was built using the unsorted library counts and used to determine the expected abundance of each epitope in the library. The ES was calculated based on the difference between the measured and the expected abundance of each epitope on a per-TCR basis (Fig. 1e). Based on ES values, two quantitative thresholds were used to determine putative cognate epitopes of a given TCR. A high-confidence zone containing clear outliers with a high ES and a low-confidence zone containing weak outliers with a moderately high ES were determined (Fig. 1e). This two-tiered strategy was used to call putative hits from screens. All the top-scoring epitopes for the BDC2.5 TCR were known BDC2.5 ligands containing the WXRM(D/E) motif (Fig. 1f,g, enriched ligands in red), a well-characterized trait of the BDC2.5 TCR[43],[54]–[56]. Across several independent experiments there was limited variation in ES values for the same TCRs and several epitopes fell into high- or low-confidence zones consistently (Extended Data Fig. 4a). Using a different TCR that was isolated from NOD mice, 4-8Ins[57], which recognized the InsB9:23 epitope ([…]), we observed a similar pattern of ES for cognate epitopes (Extended Data Fig. 4b).
(§2) We performed systematic screening of the cloned TCRs against the I-Ag7 SABR-II library. Several TCRs along with a positive control (such as BDC2.5 or 4-8Ins) were screened individually against the library for each sort (Extended Data Fig. 6a and Supplementary Table 4). High- and low-confidence ES zones for each screened TCR were defined by the ES values of the control TCR’s cognate epitopes. For all putative cognate epitopes, single SABR-IIs were constructed, expressed in NFAT–GFP Jurkat cells and used for co-incubation with the corresponding TCRs. Co-incubation assays that yielded a GFP signal higher than that obtained in assays with no TCR were determined to be positive and the epitopes deemed true cognate ligands (Extended Data Fig. 6b,c). […]

[2] = tested on: TCR17A; assay: I-Ag7 SABR-II library screen, enrichment score; conditions: TCR_Mean minus PREDICTED_TCR (from LIB_Mean, SLOPE 0.925966, INTERCEPT 1.81678e-5), PZ52
Source text: as §1, §2

[3] = tested on: TCR21B; assay: I-Ag7 SABR-II library screen, enrichment score; conditions: TCR_Mean minus PREDICTED_TCR (slope 0.954708, intercept 1.11146e-5 on LIB_Mean), TCR 21B, run PZ56
Source text: as §1, §2

[4] = tested on: TCR23; assay: I-Ag7 SABR-II library screen, enrichment score
Source text: as §1, §2

[5] = tested on: TCR29; assay: I-Ag7 SABR-II library screen, enrichment score; conditions: TCR_Mean minus PREDICTED_TCR (slope 0.951614, intercept 1.18738e-5 on LIB_Mean), TCR 29, run PZ98
Source text: as §1, §2

[6] = tested on: TCR35; assay: I-Ag7 SABR-II library screen, enrichment score; conditions: TCR_Mean minus PREDICTED_TCR (slope 0.982658, intercept 4.25575e-6 on LIB_Mean), TCR 35, run PZ101
Source text: as §1, §2

[7] = tested on: TCR40; assay: I-Ag7 SABR-II library screen, enrichment score; conditions: I-Ag7 SABR-II library PZ101, CD4 TCR 40; TCR_Mean of 3 replicates minus PREDICTED_TCR (slope 0.959981, intercept 9.82052e-6)
Source text: as §1, §2

[8] = tested on: TCR8; assay: I-Ag7 SABR-II library screen, enrichment score; conditions: TCR_Mean minus PREDICTED_TCR (from LIB_Mean, SLOPE 0.946603, INTERCEPT 1.31036e-5), PZ47
Source text: as §1, §2

[9] = tested on: TCR9; assay: I-Ag7 SABR-II library screen, enrichment score; conditions: TCR_Mean minus PREDICTED_TCR (from LIB_Mean, SLOPE 0.950453, INTERCEPT 1.21587e-5), PZ47
Source text: as §1, §2

[10] = tested on: pooled TCR1, TCR2, TCR3, TCR5, TCR7, TCR24, TCR37 with one TCR left out; assay: Multiplexed TCR/library dropout screen, individual ES of each leave-one-out pool; conditions: for INDIVIDUAL ES LOO_TCR1: leave-one-out pool without TCR1; for INDIVIDUAL ES LOO_TCR2: leave-one-out pool without TCR2; for INDIVIDUAL ES LOO_TCR3: leave-one-out pool without TCR3; for INDIVIDUAL ES LOO_TCR5: leave-one-out pool without TCR5; for INDIVIDUAL ES LOO_TCR7: leave-one-out pool without TCR7; for INDIVIDUAL ES LOO_TCR24: leave-one-out pool without TCR24; for INDIVIDUAL ES LOO_TCR37: leave-one-out pool without TCR37
Source text: Supplement 41592_2024_2255_MOESM7_ESM.xlsx, sheet "leave-one-out analysis" | column: LOO_TCR1; LOO_TCR2; LOO_TCR3; LOO_TCR5; LOO_TCR7; LOO_TCR24; LOO_TCR37

[11] = I-Ag7 library, one biological experiment
[12] = TCR_Mean minus PREDICTED_TCR (slope 0.987149, intercept 3.15366e-6 on LIB_Mean), TCR 23, run PZ56

| Sequence | Enrichment score [1] | Enrichment score [2] | Enrichment score [3] | Enrichment score [4, 11] | Enrichment score [4, 12] | Enrichment score [5] | Enrichment score [6] | Enrichment score [7] | Enrichment score [8] | Enrichment score [9] | INDIVIDUAL ES LOO_TCR1 [10] | INDIVIDUAL ES LOO_TCR2 [10] | INDIVIDUAL ES LOO_TCR3 [10] | INDIVIDUAL ES LOO_TCR5 [10] | INDIVIDUAL ES LOO_TCR7 [10] | INDIVIDUAL ES LOO_TCR24 [10] | INDIVIDUAL ES LOO_TCR37 [10] |
| --- | --- | --- | --- | --- | --- | --- | --- | --- | --- | --- | --- | --- | --- | --- | --- | --- | --- |
| AKAAVEEGIVAGGGV | -4.524e-5 | 7.661e-5 | -2.11e-5 | -2.11e-5 | -9.2e-5 | -1.352e-5 | -4.28e-5 | -1.429e-5 | 4.499e-5 | 0.0002844 | -3.982e-5 | -3.046e-5 | -2.304e-5 | -3.485e-6 | 9.492e-5 | 4.6789e-5 | 6.867e-6 |
| AEKVRNLPAGHGLNAQ | -7.319e-5 | -0.0001276 | 8.732e-6 | 8.732e-6 | 0.0001238 | -9.799e-5 | -0.0001779 | -9.416e-5 | -5.38e-5 | 2.252e-5 | 5.319e-5 | -0.0001199 | -3.193e-5 | 1.335e-5 | -1.1271e-5 | -8.015e-5 | -1.6913e-5 |
| ALVREGLRNVAAGANP | -1.221e-5 | -1.826e-5 | -1.174e-5 | -1.174e-5 | -3.805e-6 | -1.187e-5 | -4.256e-6 | -9.821e-6 | -1.329e-5 | -9.186e-6 | -1.224e-5 | -1.224e-5 | -1.224e-5 | -1.224e-5 | -1.224e-5 | -1.224e-5 | -1.224e-5 |
| AGGVAVIKAGAATEV | -2.727e-5 | -5.895e-5 | -9.6548e-5 | -9.6548e-5 | -7.52e-5 | -4.862e-5 | 7.19e-5 | 8.867e-6 | -5.809e-5 | -1.065e-5 | 2.749e-5 | 9.403e-5 | -4.985e-5 | 2.576e-5 | 3.872e-6 | -1.653e-5 | 5.688e-5 |
| AAVEEGIVAGGGVTLL | 0.0001778 | -0.0001329 | -9.242e-5 | -9.242e-5 | 8.213e-5 | -4.805e-5 | -8.894e-5 | 6.713e-5 | -2.679e-5 | -0.0001033 | -4.978e-5 | -3.795e-6 | 1.5842e-5 | 3.701e-5 | 1.545e-5 | -1.25e-6 | -5.451e-6 |
